# Values joined by “and” are separate entries in the source; they are usually repeats but may differ in a detail not shown here. Equal values may be shown once. Read-outs that look alike come from different tables or passages of the source.
# Legend:
# [1] = test system: FAK; design: method as in PMID 20050669, PMID 31923858; settings: cited from earlier work
# [2] = test system: HepG2 cells; assay: MTT antiproliferative assay on HepG2; assay type: cell-based; settings: mean ± S.D. (n = 3), read-out: Cytotoxicity in IC50, HepG2
# Procedure: (§1) The antiproliferative activity of the thiophene compounds 3a–g, 4a–c, 6a, and 7a–d was evaluated by an in vitro MTT colorimetric assay on two oncogenic cell lines: liver (HepG2) and prostate (PC-3).
# (§2) All cell lines (HepG2, PC-3, and nontumorigenic WI38) were supplied from VACSERA (Cairo, Egypt), cultured in DMEM (Invitrogen/Life Technologies, Waltham, MA, USA) at a density of 1.2–1.8 × 10,000 cells/well in a volume of 100 µL of the growth medium, and then incubated for 24 h, and an MTT assay was done as reported by.
# [3] = test system: PC-3 cells; assay: MTT antiproliferative assay on PC-3; assay type: cell-based; settings: Homo sapiens, PC-3, MTT assay; mean ± S.D. (n = 3); read-out: Cytotoxicity in IC50, PC-3
# Procedure: as §1, §2
# [4] = MTT assay on normal nononcogenic cell line WI38; assay type: cell-based; settings: human, WI38 cells (normal nononcogenic cell line); MTT assay; noncancerous cell line; mean ± S.D. (n = 3); read-out: Cytotoxicity in IC50, WI38
# Procedure: (§3) The aforementioned results illustrate that compounds 3b and 4c are the most promising cytotoxic agents on both cell lines and will be subjected to a thorough mechanistic study to understand their anticancer activity. However, before doing this, their selective toxicity and, thus, their safety were evaluated by measuring the IC50 values against the normal nononcogenic cell line (Wl38) by an MTT assay as listed in Table 1. […] Compound 3b gave SI of 6, and compound 4c gave SI = 12 showing better selectivity toward cancer cells than doxorubicin with SI = 5.
# as §2
# [5] = test system: WI38 cells; assay: MTT assay on normal nononcogenic cell line WI38; assay type: cell-based; settings: calculated by dividing the IC50 of WI38/PC-3; SI > 2 is considered safe
# Procedure: as §3, §2
# [6] = molecular target: T1, VEGFR-2 (Homo sapiens, UniProt P35968); assay: VEGFR-2 phosphorylation cell-based ELISA in HepG2 cells; settings: compounds at their formerly determined IC50
# Procedure: VEGFR-2 phosphorylation was assayed using VEGFR2 Antibody (Phospho-Tyr951) (OAEC00085, AVIVA SYSTEM BIOLOGY) [53], while Akt-1 was assayed by Mouse/Human/Rat Phospho-AKT1 (Ser473) (Cell-Based Phosphorylation ELISA) ELISA Kit-LS-F1447 (LSBio) according to manufacturer’s instructions [54].
# [7] = molecular target: T2, AKT-1 (Homo sapiens, UniProt P31749); assay: Akt kinase activity assay kit on cell lysate; assay type: biochemical; settings: LY2780301 as reference
# Text: (§5) The outcomes were expressed as IC50 values (mean standard deviation) calculated from the dose–response curves and their linear regression equations.
# [8] = test system: HepG2 cells; assay: Flow cytometric cell cycle analysis; assay type: cell-based; settings: HepG2, 48 h, at IC50
# Procedure: AKT-1 is known for its downstream activation of several proteins involved in cell proliferation and apoptosis evasion. In addition, it is reported to be involved in G1–S checkpoint transition and proliferation.
# (§4) Analyzing the DNA content in the cell cycle phases by flow cytometry was conducted using FACSCalibur (Becton Dickinson, Franklin Lakes, NJ, USA) following the manufacturer’s manual. The cell cycle analysis procedures were as reported by on HepG2 cells after their treatment with the most promising derivatives for 48 h. Further assessment of the proapoptotic effect was determined by the Annexin V-FITC/PI apoptosis detection kit (Catalog # K101-25, BD Biosciences, San Diego, CA, USA).
# [9] = test system: HepG2 cells; assay: Annexin V-FITC/PI apoptosis detection; assay type: cell-based; settings: HepG2, 48 h; for Apoptosis, Total (cells percentage) / Apoptosis, Early (cells percentage) / Apoptosis, Late (cells percentage) / Necrosis (cells percentage): at IC50; for Apoptosis, Early (cells percentage): Q2 in Figure 6; for Apoptosis, Late (cells percentage): Q3 in Figure 6; for Necrosis (cells percentage): Q4 in Figure 6
# Procedure: Annexin V/PI staining with flow cytometric analysis was adapted to measure early and late apoptotic cells and necrotic cells as presented in Table 3 and Figure 6.
# as §4
# [10] = test system: caspase-3; assay: Active caspase-3 ELISA in HepG2 cells; assay type: cell-based, human
# Procedure: Apoptosis is known to be carried out through three different pathways: intrinsic, extrinsic, and granzyme pathways. One of the controlling proteins in apoptosis is the cysteine protease named caspase with the chief executer caspase 3 [46, 47]. Accordingly, assessing the effect of 3b and 4c on the active caspase-3 level was done in HepG2 cells taking doxorubicin as the reference drug.
# The colorimetric ELISA assay for active caspase-3 detection was carried out utilizing Invitrogen™ Caspase-3 (Cleaved) Human ELISA-Kit (KHO1091, CA, USA) according to the manufacturer’s procedures. ROBONIK P2000 ELISA reader was used at 450 nm, and the standard curve was obtained by plotting the mean absorbance of each standard concentration against human caspase-3 concentrations.
# [11] = molecular target: T1, VEGFR-2; assay: VEGFR2 (KDR) kinase assay kit; assay type: biochemical; design: purchased BPS Bioscience 40325; settings: read-out: VEGFR-2 kinase inhibitory activity IC50
# Text: as §5
# [12] = molecular target: T2, AKT-1; assay: Phospho-AKT1 (Ser473) cell-based phosphorylation ELISA in HepG2 cells; design: endogenous in cells; host or cells: HepG2
# Procedure: To investigate the success of the design strategy developed in this work, the effect of the promising candidates 3b and 4c was assessed on AKT-1, a crucial protein, by determining their phosphorylation inhibition rate in HepG2 cells and measuring their biochemical kinase inhibitory activity.
# VEGFR-2 phosphorylation was assayed using VEGFR2 Antibody (Phospho-Tyr951) (OAEC00085, AVIVA SYSTEM BIOLOGY), while Akt-1 was assayed by Mouse/Human/Rat Phospho-AKT1 (Ser473) (Cell-Based Phosphorylation ELISA) ELISA Kit-LS-F1447 (LSBio) according to manufacturer’s instructions.
# [13] = test system: lung, ovarian, CNS cells; design: method as in PMID 28759878; settings: read-out: IC50 range in lung, ovarian, CNS cells; cited from earlier work
# [14] = test system: PC3 cells; design: method as in PMID 33328104; settings: cited from earlier work
# [15] = test system: HUVEC cells; design: method as in PMID 33328104; settings: cited from earlier work
# T1 sequence (P35968 20-1356): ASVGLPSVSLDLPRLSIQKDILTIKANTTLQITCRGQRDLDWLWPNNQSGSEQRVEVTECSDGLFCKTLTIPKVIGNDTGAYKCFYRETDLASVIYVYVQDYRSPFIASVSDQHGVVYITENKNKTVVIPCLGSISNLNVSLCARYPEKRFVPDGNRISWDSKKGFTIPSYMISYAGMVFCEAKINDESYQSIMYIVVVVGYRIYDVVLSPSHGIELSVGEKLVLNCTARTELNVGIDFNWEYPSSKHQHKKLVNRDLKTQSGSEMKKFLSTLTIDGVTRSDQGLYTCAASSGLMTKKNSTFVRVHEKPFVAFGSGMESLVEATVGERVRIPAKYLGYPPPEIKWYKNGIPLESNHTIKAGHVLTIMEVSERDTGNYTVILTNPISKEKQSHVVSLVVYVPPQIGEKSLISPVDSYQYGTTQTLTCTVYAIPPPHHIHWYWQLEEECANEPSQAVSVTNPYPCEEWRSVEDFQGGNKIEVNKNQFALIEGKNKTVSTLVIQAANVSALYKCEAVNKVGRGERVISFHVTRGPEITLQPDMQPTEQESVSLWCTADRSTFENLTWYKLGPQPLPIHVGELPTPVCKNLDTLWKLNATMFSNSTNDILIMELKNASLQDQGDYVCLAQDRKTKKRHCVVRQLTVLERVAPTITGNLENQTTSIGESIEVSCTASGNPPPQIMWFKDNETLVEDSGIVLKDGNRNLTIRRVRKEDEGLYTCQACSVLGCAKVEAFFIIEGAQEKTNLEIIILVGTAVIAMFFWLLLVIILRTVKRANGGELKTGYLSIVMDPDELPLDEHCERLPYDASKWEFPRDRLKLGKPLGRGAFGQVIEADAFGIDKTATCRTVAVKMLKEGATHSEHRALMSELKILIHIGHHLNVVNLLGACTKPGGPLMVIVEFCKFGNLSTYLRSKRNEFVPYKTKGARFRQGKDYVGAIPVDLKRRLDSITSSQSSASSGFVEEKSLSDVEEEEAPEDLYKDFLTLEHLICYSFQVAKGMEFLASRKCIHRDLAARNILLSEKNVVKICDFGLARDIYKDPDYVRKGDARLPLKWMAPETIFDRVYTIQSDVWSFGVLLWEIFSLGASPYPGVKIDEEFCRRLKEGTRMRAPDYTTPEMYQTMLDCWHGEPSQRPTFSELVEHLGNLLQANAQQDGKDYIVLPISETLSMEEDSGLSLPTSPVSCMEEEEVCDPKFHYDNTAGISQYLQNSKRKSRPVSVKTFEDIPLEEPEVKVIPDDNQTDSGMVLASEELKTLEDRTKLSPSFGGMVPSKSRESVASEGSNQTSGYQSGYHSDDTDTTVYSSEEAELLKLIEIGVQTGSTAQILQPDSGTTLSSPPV
# T2 sequence (P31749 whole entry): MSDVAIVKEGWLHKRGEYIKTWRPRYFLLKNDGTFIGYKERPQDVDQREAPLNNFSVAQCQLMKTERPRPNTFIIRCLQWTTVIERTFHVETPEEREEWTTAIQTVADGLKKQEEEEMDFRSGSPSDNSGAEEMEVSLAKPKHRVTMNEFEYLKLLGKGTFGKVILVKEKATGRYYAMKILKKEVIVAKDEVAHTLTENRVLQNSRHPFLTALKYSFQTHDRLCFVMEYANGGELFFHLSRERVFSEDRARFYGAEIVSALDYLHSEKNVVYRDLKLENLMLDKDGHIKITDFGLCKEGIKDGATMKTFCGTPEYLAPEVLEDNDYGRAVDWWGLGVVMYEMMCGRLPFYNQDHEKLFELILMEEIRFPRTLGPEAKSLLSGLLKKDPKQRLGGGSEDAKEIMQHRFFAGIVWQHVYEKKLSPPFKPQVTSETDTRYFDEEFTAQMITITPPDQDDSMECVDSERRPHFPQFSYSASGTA
compound,measurement,setting,value
COc1ccccc1-c1csc2cnc(Nc3ccc(C(=O)NC4CCNCC4)c(F)c3)nc12 [II],IC50,[1],0.0282 µM
"CN1CCc2sc3nc(-c4ccc(Cl)cc4)[nH]c(=O)c3c21 [3b, 2-(4-Chlorophenyl)-5-methyl-3,5,6,7-tetrahydro-4H-pyrrolo[2′,3′:4,5]thieno[2,3-d]pyrimidin-4-one]",IC50,"[2]; Homo sapiens, HepG2, MTT assay",3.1 µM
same,IC50,[2]; MTT assay,3.11 ± 0.14 µM
same,IC50,[3],2.15 ± 0.12 µM
same,IC50,[4],12.5 ± 0.68 µM
same,Selectivity Index (SI),[5],6 and 5.79
same,VEGFR-2 phosphorylation inhibition,[6],58.3%
same,IC50,[7],6.96 µM
same,"% Content of DNA, G0:G1",[8],39.42%
same,"% Content of DNA, G2:M",[8],4.39%
same,"% Content of DNA, PreG1",[8],42.06%
same,"% Content of DNA, S",[8],56.19%
same,Cell cycle comment (phase of arrest),[8],cell growth arrest@ S
same,Increase in early apoptotic cells over untreated cells,[9],5 fold
same,Increase in late apoptotic cells over untreated cells,[9],144 fold
same,"Apoptosis, Total (cells percentage)",[9],42.06%
same,"Apoptosis, Early (cells percentage)",[9],2.51%
same,"Apoptosis, Late (cells percentage)",[9],24.53%
same,Necrosis (cells percentage),[9],15.02%
same,Increase in active caspase-3 level over the untreated cells,[10],five-fold
same,melting point,,168 °C
same,IC50,[11],0.126 µM
same,AKT-1 phosphorylation inhibition rate,[12],63%
COc1ccc(-c2nc3sc4c(c3c(=O)[nH]2)CCCC4)cc1 [III],IC50,[13],0.6 to 1.2 µM
"CCOC(=O)c1c(NC(=S)Nc2cc(C)ccc2Cl)sc2c1N(C)CC2 [4c, Ethyl 2-(3-(2-chloro-5-methylphenyl)thioureido)-4-methyl-5,6-dihydro-4H-thieno[3,2-b]pyrrole-3-carboxylate]",IC50,"[2]; Homo sapiens, HepG2, MTT assay",3.02 µM
same,IC50,[2]; MTT assay,3.02 ± 0.14 µM
same,IC50,[3],3.12 ± 0.17 µM
same,IC50,[4],35.3 ± 1.92 µM
same,Selectivity Index (SI),[5],12 and 11.68
same,VEGFR-2 phosphorylation inhibition,[6],70%
same,IC50,[7],4.6 µM
same,"% Content of DNA, G0:G1",[8],53.28%
same,"% Content of DNA, G2:M",[8],1.48%
same,"% Content of DNA, PreG1",[8],29.81%
same,"% Content of DNA, S",[8],45.24%
same,Increase in early apoptotic cells over untreated cells,[9],7 fold
same,Increase in late apoptotic cells over untreated cells,[9],97 fold
same,"Apoptosis, Total (cells percentage)",[9],29.81%
same,"Apoptosis, Early (cells percentage)",[9],3.85%
same,"Apoptosis, Late (cells percentage)",[9],16.55%
same,Necrosis (cells percentage),[9],9.41%
same,Increase in active caspase-3 level over the untreated cells,[10],six-fold
same,IC50,[11],0.075 µM
same,AKT-1 phosphorylation inhibition rate,[12],71.6%
O=C(Nc1ccc(Cl)c(Cl)c1)Nc1nnc(Sc2ncnc3scc(-c4ccncc4)c23)s1 [V],Pro-apoptotic effect in PC3 cells,[14],44%
same,Pro-apoptotic effect in HUVEC cells,[15],28.45%
